Results on 1 substance are retold here after US20250082781A1, “METHODS OF LOWERING BLOOD GLUCOSE AND TREATING TYPE 2 DIABETES BY ACTIVATION OF PDE4D3” (Salk Institute for Biological Studies, priority 2021, published 2025).

One assay has as its system serum FFA levels. In words: Serum FFA levels in DIO mice. As to conditions: FGF1 0.5 mg/kg s.c. The class given is in vivo, mouse. The procedure: (§1) Mice were kept in 12 h light/dark cycle in a temperature-controlled environment. Mice had free access to food and water unless noted otherwise. C57/B6 mice background was used unless noted otherwise. C57BL/6J and ob/ob (000632-B6. Cg-Lepob/J) male mice were obtained from Jackson Laboratory. PDE4D knock-out mice (034588-UCD) were obtained from MMRRC. For diet-induced obesity (DIO) studies, mice were fed a high fat diet (HFD) (60% fat, F3282; Bio-Serv) for minimum of 12 weeks to induce insulin resistance when diet-induced obese model is used. Insulin levels and blood glucose levels were monitored to confirm insulin resistance. To generate adipose-specific FGFR1 deletion, adiponectin-cre mice (B6; FVB-Tg (Adipoq-cre)1Evdr/J; Stock: 010803) were crossed to Fgfr1 flox/flox (B6.129S4-Fgfr1tm5.1Sor/J; Stock: 00767) mice. For AAV mediated expression of target proteins in adipose tissue, 5×10E+11 genomic copies of AAV were injected via tail vein or retro-orbital route.
(§2) Recombinant FGF1 (rFGF1) was dissolved in phosphate-buffered saline (PBS) at a concentration of 0.2 mg/ml and was injected subcutaneously at a 0.5 mg kg^−1 dose. Blood glucose was monitored at indicated time points after injection. For initial measurements (2-4 h) food was removed after injection to exclude any indirect effects stemming from anorexigenic effects of FGF1. PDE4 inhibitor roflumilast stock in DMSO was diluted at 1 mg/ml in 30% captisol, pH 10 and delivered to mice thorough oral gavage at 5 mg kg^−1 dose. PDE3 inhibitor cilostamide stock in DMSO was diluted at 2 mg/ml in 30% captisol and delivered through intraperitoneal injection at 10 mg kg^−1 dose.

Assay [1] relates to hepatic gluconeogenic intermediates. In words: Hepatic metabolite levels (targeted metabolomics, kits). The class given is in vivo, mouse. The procedure: Polar metabolites were extracted and analyzed using a previously reported method (Yuan et al., 2012). Briefly, ob/ob mice were sacrificed by cervical dislocation. Liver pieces (50-100 mg) were snap frozen in liquid nitrogen. 1 ml LC-MS grade 80% methanol chilled at −80° C. was added per 100 mg tissue on dry ice. Samples were homogenized by TissueLyzer and lysates were incubated on dry ice for 30 minutes and centrifuged at 20000 g for 10 minutes. Clarified supernatants were transferred to new tubes. Pellets were extracted again and supernatants were combined. After drying the supernatant under nitrogen gas, extracts were dissolved in H2O (40 μL) and 10 μL were subjected to liquid chromatography mass spectrometry (LC-MS). Polar metabolites were measured by LC-MS using a TSQ Quantiva instrument fitted with a Luna NH2 HPLC column (5.0 μm; 4.6 mm×50 mm, Phenomenex). The following LC solvents were used: buffer A, 95:5 H2O/ACN, 20 mM ammonium hydroxide, 20 mM ammonium acetate; buffer B, 100% ACN. A typical LC run was 23 minutes long with a flow rate of 0.4 ml min-1 and consisted of the following steps: 85 to 30% buffer B over 3 minutes, 30 to 2% buffer B over 9 minutes, 2% buffer B for 3 minutes, 2 to 85% buffer B over 1 minute, and 85% buffer B for 7 minutes. MS analyses were performed using electrospray ionization (ESI) in negative or positive ion mode depending on the metabolites being analyzed. Negative mode and positive mode source parameters were the following: spray voltage 3.5 kV, ion transfer tube temperature of 325° C., and a vaporizer temperature of 275° C.
Liver samples were prepared from HFD-fed mice as described in Pcx activity assay. After determining Pcx activity from sample homogenates, the remaining supernatant was de-proteinated by perchloric acid (PCA)-KOH method using a commercial kit. De-proteinated samples were used to quantify hepatic metabolites using the commercial kits. Hepatic metabolites concentration was normalized to protein concentration and corrected for the loss of volume due to de-proteinization.

Assay [2] deals with HSL phosphorylation at S660. The assay is described as follows: Western blot of pHSL-S660 in 3T3-L1 adipocytes. It counts as cell-based. The following applies: basal and ISO-stimulated, FGF1 100 ng/ml. Here is the method: Tissues were lysed in cold lysis buffer (50 mM Tris, pH 7.5, 150 mM NaCl, 1% NP40, 0.5% NaDoc, 0.1% SDS, 5% glycerol, 1 mM EDTA, protease and phosphatase inhibitors (complete and PhosSTOP (Roche)) by homogenization by bead-beater for 30 s. Samples were cleared for 10 min at 18,000 g at 4° C. and the middle clear phase was transferred to new tubes. A second 30 min centrifugation was performed and the middle clear phase was transferred to new tubes. Five ul protein extract was used for BCA assay to determine protein concentration. Samples were boiled in Laemmli buffer. SDS-PAGE and blotting were performed using gradient gels and Trans-Blot Turbo Transfer System (Bio-Rad). Antibodies used were PDE4D (12918-1-AP, Proteintech), pHSL-660 (4126S, Cell signaling), HSL (4107S, Cell Signaling), tubulin (CP06, Millipore Sigma), and GFP (A01388, GenScript). PDE4D3-pS44 phospho-specific antibody was generated using PDE4D3-S44 FRRHpSWISFDVDNGTSAGR peptide (SEQ ID NO: 20) (Mackenzie et al., 2002) by Pocono Rabbit Farm, using 70-day rabbit antibody production protocol and purified via affinity purification. Primary antibodies were incubated for 2 h at room temperature (RT) or overnight (ON) at 4° C. Blots were developed using SuperSignal West Pico PLUS Chemiluminescent Substrate (ThermoFisher Scientific) and imaged with BioRad GelDoc system.

The test system of a further assay is blood glucose levels. The assay is described as follows: Blood glucose levels in DIO mice. The class given is in vivo, mouse. The following applies: for blood glucose levels: 0.5 mg/kg FGF1 s.c. The procedure:
as §1, §2

The mark [3] stands for this setting: livers of ob/ob mice 2 h after FGF1 injection.

Consider “FGF1: Recombinant fibroblast growth factor 1 protein, dissolved in PBS, injected subcutaneously”, for which the “serum FFA levels” value in the assay with serum FFA levels (overnight fasted DIO adR1KO mice) is given as “failed to affect adR1KO mice”. For the same substance, in the assay on serum FFA levels (overnight fasted DIO adR1WT mice, 30 min), the “reduction of serum FFA levels” value is on record as roughly 30%. The hepatic gluconeogenic substrates entry in assay [1] (HFD-fed adR1KO mice, 6 h after FGF1 0.5 mg/kg) is reported as “insensitive to FGF1 treatment”. In addition, the “reductions in hepatic gluconeogenic substrates” value in assay [1] (HFD-fed adR1WT mice, 6 h after FGF1 0.5 mg/kg) is reported as “largely recapitulated”. In assay [1] (setting [3]), the “hepatic TCA cycle metabolites” value was “not affected”; the “hepatic acetyl-CoA levels” value is on record as “decreased”; the “hepatic intermediates downstream of pyruvate (G6P, F6P, PG, PEP, OAA)” value is recorded as “reduced”. Besides, the “HSL phosphorylation at S660 (pHSL)” value in assay [2] is reported as “suppressed HSL phosphorylation at S660”. The blood glucose levels entry in the assay on blood glucose levels (DIO adR1KO mice) is reported as “failed to affect adR1KO mice”. In the assay on blood glucose levels (DIO mice, FGF1 0.5 mg/kg, cilostamide 10 mg/kg), the “ability of FGF1 to modulate glucose levels under inhibition of PDE3” value is listed as “failed to affect the ability of FGF1 to modulate glucose levels”. In addition, the blood glucose levels result in the assay with blood glucose levels (DIO wild type mice (adR1WT)) was “rapidly decreased blood glucose levels”. The blood glucose entry with blood glucose levels (HFD-fed PDE4D KO mice, FGF1 0.5 mg/kg) is listed as “failed to lower blood glucose”. In addition, the “FGF1 blood glucose lowering with adAAV-driven expression of PDE4D3 in adipose tissue” value in the assay on blood glucose levels (PDE4D KO DIO mice 4 weeks after adAAV, FGF1 0.5 mg/kg) is reported as “restored”. Besides, the “ability of FGF1 to reduce blood glucose levels with roflumilast pretreatment” value in the assay with blood glucose levels (ad lib fed DIO mice, FGF1 0.5 mg/kg, roflumilast 5 mg/kg) was “lost”.
